Assay results reported in patent US20160271149A1, “[…] COMPOUNDS THAT […] PROTEIN ARGININE […] ACTIVITY FOR REDUCING TUMOR CELL PROLIFERATION” (Epinova Therapeutics Corp., priority 2015, published 2016).
Several values for one entry are separate records, joined by “and”; a condition that tells them apart may be missing. Identical values can stand only once. Counter-ions that a name gives are not always drawn.

What was measured:
PRMT5/MEP50 = PRMT5/MEP50 (Homo sapiens, UniProt O14744); test: Methyltransferase activity screen and profiling, PRMT5/MEP50, substrate Histone H2A; settings: for % Enzyme Activity (relative to DMSO controls): PRMT5/MEP50, substrate Histone H2A, single-dose mode, duplicate (Data 1, Data 2), 1 μM SAM, 100 μM; for % Activity / Raw data: PRMT5/MEP50 profiling; for HILLSLOPE: Table 4, PRMT5/MEP50 dose-response curve fit
Experimental: (§1) A 10 mM DMSO stock solution of each test compound was prepared.
(§2) Compounds were tested in a single-dose mode, in duplicate at the following concentrations.
(§3) Reactions were carried out at 1 μM SAM. The no inhibitor control was set as 100% activity).

PRMT5 = PRMT5 (Homo sapiens, UniProt O14744); test: Methyltransferase activity screen, PRMT5, substrate Histone H2A; settings: for % Enzyme Activity (relative to DMSO controls): PRMT5, substrate Histone H2A, single-dose mode, duplicate (Data 1, Data 2), 1 μM SAM, 100 μM; for inhibition of PRMT5: at a concentration of 100 μM
Experimental: as §1, §2, §3

PRMT1 = PRMT1 (Homo sapiens, UniProt Q99873); test: Methyltransferase activity screen, PRMT1, substrate Histone H4; settings: single-dose mode, duplicate (Data 1, Data 2), 1 μM SAM, 100 μM
Experimental: as §1, §2, §3

PRMT6 = PRMT6 (Homo sapiens, UniProt Q96LA8); test: Methyltransferase activity screen, PRMT6, substrate Histone H3; settings: for % Enzyme Activity (relative to DMSO controls): PRMT6, substrate Histone H3, single-dose mode, duplicate (Data 1, Data 2), 1 μM SAM, 100 μM
Experimental: as §1, §2, §3

human PPARα = biological target: T1, human PPARα (Homo sapiens, UniProt Q07869); settings: at 1 μM; COS-1 cells, human PPARα and RXRα; cited from earlier work
T1 sequence (Q07869 1-468): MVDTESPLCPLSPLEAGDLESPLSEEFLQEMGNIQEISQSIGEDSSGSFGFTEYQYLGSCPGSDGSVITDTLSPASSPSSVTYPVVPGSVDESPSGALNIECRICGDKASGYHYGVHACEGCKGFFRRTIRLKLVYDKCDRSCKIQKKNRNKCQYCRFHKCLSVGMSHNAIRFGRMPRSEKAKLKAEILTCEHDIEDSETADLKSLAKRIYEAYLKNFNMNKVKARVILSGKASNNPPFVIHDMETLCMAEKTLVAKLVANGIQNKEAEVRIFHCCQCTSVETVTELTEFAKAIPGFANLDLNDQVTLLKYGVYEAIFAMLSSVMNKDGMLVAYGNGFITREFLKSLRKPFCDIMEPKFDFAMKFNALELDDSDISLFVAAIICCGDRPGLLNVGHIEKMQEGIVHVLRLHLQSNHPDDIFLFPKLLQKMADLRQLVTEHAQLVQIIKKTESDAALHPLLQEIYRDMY
T1 sequence (P19793 1-462 partner): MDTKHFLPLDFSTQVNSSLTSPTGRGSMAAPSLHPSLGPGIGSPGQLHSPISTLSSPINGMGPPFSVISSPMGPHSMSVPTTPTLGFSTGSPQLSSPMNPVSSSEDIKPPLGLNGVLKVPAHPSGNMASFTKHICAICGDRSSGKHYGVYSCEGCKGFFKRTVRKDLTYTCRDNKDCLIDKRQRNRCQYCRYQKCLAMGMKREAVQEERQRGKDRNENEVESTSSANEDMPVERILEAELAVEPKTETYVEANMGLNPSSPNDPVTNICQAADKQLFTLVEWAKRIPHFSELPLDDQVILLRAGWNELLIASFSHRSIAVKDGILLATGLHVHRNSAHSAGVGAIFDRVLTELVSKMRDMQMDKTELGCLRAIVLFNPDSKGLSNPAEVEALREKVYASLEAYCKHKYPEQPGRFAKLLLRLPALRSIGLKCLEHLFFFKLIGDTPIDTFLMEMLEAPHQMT

LXR and FXR = settings: cited from earlier work

Sequence of PRMT6 (Q96LA8 whole entry): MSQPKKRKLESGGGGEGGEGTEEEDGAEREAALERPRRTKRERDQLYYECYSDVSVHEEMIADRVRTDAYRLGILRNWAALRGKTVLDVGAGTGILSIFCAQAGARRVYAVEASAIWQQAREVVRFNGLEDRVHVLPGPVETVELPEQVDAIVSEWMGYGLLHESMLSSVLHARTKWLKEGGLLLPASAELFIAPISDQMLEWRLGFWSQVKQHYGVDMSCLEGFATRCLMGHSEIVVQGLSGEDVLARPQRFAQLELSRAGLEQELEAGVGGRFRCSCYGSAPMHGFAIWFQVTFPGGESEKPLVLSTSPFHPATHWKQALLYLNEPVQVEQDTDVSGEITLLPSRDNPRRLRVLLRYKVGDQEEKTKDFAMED
Sequence of PRMT1 (Q99873 whole entry): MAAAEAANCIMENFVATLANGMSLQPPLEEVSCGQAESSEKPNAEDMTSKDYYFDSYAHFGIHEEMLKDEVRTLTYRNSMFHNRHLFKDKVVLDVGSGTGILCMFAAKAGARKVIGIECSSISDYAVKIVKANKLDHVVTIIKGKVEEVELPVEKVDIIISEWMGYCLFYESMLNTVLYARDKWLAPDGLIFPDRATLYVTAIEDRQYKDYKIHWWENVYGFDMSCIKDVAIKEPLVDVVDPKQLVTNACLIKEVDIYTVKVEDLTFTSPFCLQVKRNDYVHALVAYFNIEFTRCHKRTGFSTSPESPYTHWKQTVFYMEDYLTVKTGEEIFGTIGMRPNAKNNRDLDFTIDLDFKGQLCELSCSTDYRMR
Sequence of PRMT5 (O14744 whole entry): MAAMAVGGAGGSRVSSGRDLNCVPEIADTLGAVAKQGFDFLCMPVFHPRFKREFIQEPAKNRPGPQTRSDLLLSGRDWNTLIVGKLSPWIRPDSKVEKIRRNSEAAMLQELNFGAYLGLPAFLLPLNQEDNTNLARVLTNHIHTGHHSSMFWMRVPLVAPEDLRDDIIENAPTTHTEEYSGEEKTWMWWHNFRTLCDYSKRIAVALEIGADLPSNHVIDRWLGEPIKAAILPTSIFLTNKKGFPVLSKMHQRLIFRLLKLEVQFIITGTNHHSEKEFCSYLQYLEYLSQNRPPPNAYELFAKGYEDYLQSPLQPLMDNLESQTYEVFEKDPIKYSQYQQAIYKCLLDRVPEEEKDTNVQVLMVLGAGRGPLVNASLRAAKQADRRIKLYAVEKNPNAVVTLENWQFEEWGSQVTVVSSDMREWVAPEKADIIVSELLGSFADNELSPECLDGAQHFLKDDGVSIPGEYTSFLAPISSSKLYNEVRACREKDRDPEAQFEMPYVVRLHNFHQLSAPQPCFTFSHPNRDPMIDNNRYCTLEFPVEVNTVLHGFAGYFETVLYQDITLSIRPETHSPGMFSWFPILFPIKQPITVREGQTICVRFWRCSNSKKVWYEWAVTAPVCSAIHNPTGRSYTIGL
Sequence of PRMT5/MEP50 (O14744 whole entry): as above
Sequence of PRMT5/MEP50 (Q9BQA1 whole entry partner): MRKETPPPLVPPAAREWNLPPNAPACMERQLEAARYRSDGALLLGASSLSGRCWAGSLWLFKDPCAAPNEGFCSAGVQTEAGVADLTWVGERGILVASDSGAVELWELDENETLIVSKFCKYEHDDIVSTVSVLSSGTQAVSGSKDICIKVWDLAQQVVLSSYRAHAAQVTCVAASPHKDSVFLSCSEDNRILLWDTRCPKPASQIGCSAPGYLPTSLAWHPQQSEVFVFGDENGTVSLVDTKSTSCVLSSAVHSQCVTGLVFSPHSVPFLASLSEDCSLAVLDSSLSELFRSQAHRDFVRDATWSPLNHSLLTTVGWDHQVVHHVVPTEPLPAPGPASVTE

Row | Compound | inhibition of PRMT5 (PRMT5) | % Activity (PRMT5/MEP50; Conc. 1.00E−04 M) | Raw data (PRMT5/MEP50; Conc. 1.00E−04 M) | % Activity (PRMT5/MEP50; Conc. 1.11E−05 M) | Raw data (PRMT5/MEP50; Conc. 1.11E−05 M) | % Activity (PRMT5/MEP50; Conc. 1.23E−06 M) | Raw data (PRMT5/MEP50; Conc. 1.23E−06 M) | % Activity (PRMT5/MEP50; Conc. 1.37E−07 M) | Raw data (PRMT5/MEP50; Conc. 1.37E−07 M) | % Activity (PRMT5/MEP50; Conc. 1.52E−08 M) | Raw data (PRMT5/MEP50; Conc. 1.52E−08 M) | % Activity (PRMT5/MEP50; Conc. 3.33E−05 M) | Raw data (PRMT5/MEP50; Conc. 3.33E−05 M) | % Activity (PRMT5/MEP50; Conc. 3.70E−06 M) | Raw data (PRMT5/MEP50; Conc. 3.70E−06 M) | % Activity (PRMT5/MEP50; Conc. 4.12E−07 M) | Raw data (PRMT5/MEP50; Conc. 4.12E−07 M) | % Activity (PRMT5/MEP50; Conc. 4.57E−08 M) | Raw data (PRMT5/MEP50; Conc. 4.57E−08 M) | % Activity (PRMT5/MEP50; Conc. 5.08E−09 M) | also measured
1 | CN(C)C(=N)N=C(N)N [Metformin, N, N-dimethyl-imidodicarbonimidic diamide, monohydrochloride] | – | – | – | – | – | – | – | – | – | – | – | – | – | – | – | – | – | – | – | – | % Enzyme Activity (relative to DMSO controls) (PRMT5/MEP50; monohydrochloride): 88.20% and 82.84%; % Enzyme Activity (relative to DMSO controls) (PRMT5; monohydrochloride): 98.74% and 84.85%; % Enzyme Activity (relative to DMSO controls) (PRMT1; monohydrochloride): 100.50% and 101.26%; % Enzyme Activity (relative to DMSO controls) (PRMT6; monohydrochloride): 90.66% and 90.30%
2 | CN(CCOc1ccc(CC2SC(=O)NC2=O)cc1)c1ccccn1 (centres unmarked) [Rosiglitazone, 5-[[4-[2-(methyl-2-pyridinylamino)ethoxy]phenyl]methyl]-2,4-thiazolidinedione] | no effect | – | – | – | – | – | – | – | – | – | – | – | – | – | – | – | – | – | – | – | –
3 | CCc1ccc(CCOc2ccc(CC3SC(=O)NC3=O)cc2)nc1 (centres unmarked) [Pioglitazone, 5-[[4-[2-(5-ethyl-2-pyridinyl)ethoxy]phenyl]methyl]-2,4-thiazolidinedione] | mild inhibitor | – | – | – | – | – | – | – | – | – | – | – | – | – | – | – | – | – | – | – | % Enzyme Activity (relative to DMSO controls) (PRMT5/MEP50): 43.68% and 45.13%; % Enzyme Activity (relative to DMSO controls) (PRMT5): 18.95% and 18.46%; % Enzyme Activity (relative to DMSO controls) (PRMT1): 110.44% and 99.23%; % Enzyme Activity (relative to DMSO controls) (PRMT6): 93.46% and 102.78%; activation of PPARα (human PPARα): low level activation
4 | CC(C)c1onc(-c2c(Cl)cccc2Cl)c1COc1ccc(C=Cc2cccc(C(=O)O)c2)c(Cl)c1 [GW 4064, 3-[2-[2-chloro-4-[[3-(2,6-dichlorophenyl)-5-(1-methylethyl)-4-isoxazolyl]methoxy]phenyl]ethenyl]-benzoic acid] | – | 5.70% | 24954 | 117.75% | 515444 | 105.80% | 463109 | 99.86% | 437127 | 96.95% | 424387 | 120.51% | 527528 | 103.51% | 453113 | 99.48% | 435450 | 97.26% | 425743 | 94.60% | IC50 (PRMT5/MEP50): 79.2 µM; Raw data (PRMT5/MEP50; Conc. 5.08E−09 M): 414110; HILLSLOPE (PRMT5/MEP50): −12.23; affinity for LXR and FXR (LXR and FXR): nanomolar affinity
5 | Nc1ncnc2c1ncn2[C@@H]1O[C@H](CSCC[C@H](N)C(=O)O)[C@@H](O)[C@H]1O [SAH, S-(5′-Adenosyl)-L-homocysteine] | – | 5.40% | 23637 | 23.32% | 102087 | 61.44% | 268933 | 87.83% | 384445 | 90.12% | 394475 | 11.73% | 51347 | 42.02% | 183946 | 72.99% | 319517 | 96.88% | 424069 | 91.72% | Raw data (PRMT5/MEP50; Conc. 5.08E−09 M): 401476; HILLSLOPE (PRMT5/MEP50): −0.78; IC50 (PRMT6): 0.623 µM
